Assay results: US20150297619A1, “METHODS AND COMPOSITIONS FOR PRESERVING THE MUCOSAL BARRIER” (priority 2014, published 2015)

Tests used:
[1] = system: MMP-1/9; test: Plasma MMP-1/9 activity by plate zymography after hemorrhagic shock; type: in vivo, rat; conditions: compared to the HS+SAL animals
Procedure: Enzyme and Protease Activity Measurements—All microplate assays were performed in duplicate in 96 well black-sided flat bottom polystyrene plates (Corning, New York, N.Y.) and measured in a microplate reader (FilterMax F-5 Multi-mode, Molecular Devices, Sunnyvale, Calif.). Plasma MMP-1/9 activity was also detected by plate zymography using a protease specific substrate (American Peptide Company, Sunnyvale, Calif.).

[2] = system: 20 kDa serine proteases; test: Gelatin gel zymography of pre-ischemic intestinal homogenates renatured with inhibitor: serine protease bands; type: biochemical, rat; conditions: inhibitor in renaturing and developing buffer: tranexamic acid 20 mM, doxycycline 1 mg/ml, GM-6001 1 ug/ml
Procedure: Gelatin Gel Zymography—Segments 2 and 7 from pre-ischemic intestines were homogenized (0.1 g tissue/ml homogenization buffer; PBS pH 7.4 with 0.5% hexadecyltrimethyl bromide) and centrifuged at 1.4×10^4 g for 20 minutes. Supernatants were stored at −80° C. until samples were processed.
To assess the proteolytic activities of individual proteases in intestinal tissue samples, sample volumes of 1 μl (with 2 μg of protein) were separated by gel electrophoresis in SDS-PAGE gels containing 80 μg/ml gelatin. […] The molecular weights of the proteases were estimated by use of a standard protein ladder (Invitrogen). Gels were digitized and bands were analyzed by densitometry in ImageJ (rsbweb.nih.gov/ij/).
These gels were compared to a concurrently run gel processed normally.

[3] = system: intestinal villi; test: Morphological analysis of intestinal villi after ex vivo ischemia (Van Gieson/hematoxylin); parameters: species or system rat; conditions: jejunum and ileum after 2 hrs ex vivo ischemia
Procedure: After the two-hour ischemic incubation, intestinal pieces from segments 2 (jejunum) and 7 (ileum) were embedded in O.C.T. (Tissue Tek, Torrance, Calif.) and snap frozen in t-methyl butane in liquid nitrogen. Intestine samples from segments 2 and 7 (for protease analysis) and segment 7 (for immunoblots) were snap frozen and stored for subsequent homogenization. Morphological Analysis and TUNEL Labeling—Intestinal segments frozen in O.C.T. were cut into 5 μm sections. Sections were fixed using ice-cold methanol (8 min at −20° C.) and immediately washed four times in distilled water. Nuclei were stained by incubating sections in freshly mixed Weigert's Iron Hematoxylin A and B (Electron Microscopy Science, Hatfield, Pa.) (10 min) followed by rinsing thoroughly with water. Collagen fibers were labeled by incubating (2 min) in Van Gieson's Solution (Electron Microscopy Science). Prior to mounting, all slides were dehydrated (70, 95, 100% ethanol) and cleaned with xylene. After air-drying overnight, sections were mounted using Hard Set Mounting Media (Vector Laboratories, Burlingame, Calif.). Digital images were captured with a 20× objective (numerical aperture 0.5) and digitally montaged together after background subtraction. The separation of the mucosal epithelial layer was quantified for groups that had intact villi following the two hour ischemic period. Images were blinded and the distance between the mucosal epithelial layer and the lamina propria was measured over five lengths across a minimum of 6 villi.

[4] = system: ischemic small intestine segments (jejunum to ileum); test: Ex vivo intestinal ischemia: transmural fluorescein transport across wall of flushed intestinal segments; parameters: species or system rat
Text: Intestinal Ischemia—Since intestinal properties are non-homogenous, the transmural permeability was investigated over the entire length of the jejunum and ileum. Due to physical constraints of the small intestine anatomy, it is not feasible to simultaneously analyze permeability from multiple segments in vivo. Therefore, an ex vivo approach similar to previously published studies was designed to measure permeability along the length of the small intestine.
A midline incision was made to expose the intestine in anesthetized rats. The proximal end of the jejunum (approximately 5 cm distal from the ligament of Treitz) was cannulated with a female luer to barb tube connector (⅛″ inner diameter). The intestine was removed and placed in saline immediately before euthanasia. In order to focus the analysis on permeability of the intestinal wall during ischemia in the absence of luminal contents (including the digestive proteases or cytotoxic factors from food), the lumen of the intestine was flushed with 40 ml saline using pulsatile pressure. Visual examination confirmed all solid contents were removed. Next, the intestine was cut into eight equal length segments (˜8 cm) sequentially ordered from the proximal jejunum (position 1) to the distal ileum (position 8). Both ends of each segment were cannulated with Female Luer to Barb tube connectors (thus allowing entry and exit points from the intestinal lumen to be sealed completely), secured with 4-0 suture, and the exterior portion of one adaptor on each segment sealed with clay.
To determine the transmural permeability of the intestine, all 8 segments from each animal were filled with a low molecular weight tracer as a sensitive measure of early barrier breakdown prior to the initiation of ischemia, fluorescein (332 Da M.W., 20 μg/ml from 5 mg/ml stock in ethanol; 0.308 osm/L; Sigma-Aldrich, St. Louis, Mo.) mixed with saline, glucose (100 mg/ml in saline; 0.550 moles/L; 0.863 osm/L, Sigma-Aldrich), the non-metabolizing glucose analog mannitol (100 mg/ml in saline; 0.550 moles/L; 0.863 osm/L), the serine protease inhibitor tranexamic acid (31 mg/ml in saline; 0.200 moles/L; 0.508 osm/L, Sigma-Aldrich), the MMP inhibitor doxycycline hyclate (1 mg/ml in saline; 1.955×10^−3 moles/L; 0.310 osm/L, Sigma-Aldrich), or the MMP inhibitor GM 6001 [38] (1 μg/ml in saline from 1 mg/ml stock in DMSO; 2.57×10^−6 moles/L; 0.308 osm/L, Millipore, Billerica, Md.). […]
Sealed segments were rinsed in saline, individually placed in 15 ml conical tubes containing 6 ml saline, and incubated at 37° C. for 2 hours to simulate ischemic conditions. […] Plates were read in a plate reader (FilterMax F-5 Multi-mode, Molecular Devices, Sunnyvale, Calif.) for concentration of fluorescein (excitation 494/emission 521) to measure diffusion across the wall of the intestine.
Permeability Analysis—To determine the fluorescein transport across the ischemic intestinal wall, the fluorescence at time 0 was subtracted from fluorescence values at later time points to correct for background, and fluorescence values were corrected to account for the volume reduction due to sampling during the experiment. The RFU measurements were converted to equivalent moles by using the linear relationship between concentration and fluorescein fluorescence (not shown, R^2=0.999). The transport of fluorescein across the wall (measured in moles, per time) was computed as the change in fluorescence over a 30 min interval divided by 30 min.

[5] = system: MMP-9 dimers, pro-MMP-2, MMP-2, MMP-1 or MMP-3; test: Gelatin gel zymography of pre-ischemic intestinal homogenates renatured with inhibitor: MMP bands; type: biochemical, rat; conditions: inhibitor in renaturing and developing buffer: tranexamic acid 20 mM, doxycycline 1 mg/ml, GM-6001 1 ug/ml
Procedure: Gelatin Gel Zymography—Segments 2 and 7 from pre-ischemic intestines were homogenized (0.1 g tissue/ml homogenization buffer; PBS pH 7.4 with 0.5% hexadecyltrimethyl bromide) and centrifuged at 1.4×10^4 g for 20 minutes. Supernatants were stored at −80° C. until samples were processed. To assess the proteolytic activities of individual proteases in intestinal tissue samples, sample volumes of 1 μl (with 2 μg of protein) were separated by gel electrophoresis in SDS-PAGE gels containing 80 μg/ml gelatin. […] The molecular weights of the proteases were estimated by use of a standard protein ladder (Invitrogen). Gels were digitized and bands were analyzed by densitometry in ImageJ (rsbweb.nih.gov/ij/). […] These gels were compared to a concurrently run gel processed normally.

[6] = system: mucin 13, occludin, and E-cadherin; test: Immunoblots of epithelial barrier proteins in post-ischemic intestinal homogenates (segment 7); parameters: species or system rat; conditions: ileum segment 7, two hour ex vivo ischemia
Procedure: Immunoblotting—To determine whether selected epithelial barrier proteins were degraded during ischemia, pre- and post-ischemic intestinal tissue homogenates (segment 7) were analyzed for relative levels of mucin 13, occludin, and E-cadherin.
Tissues were homogenized for immunoblot analysis in buffer (CelLytic, Sigma-Aldrich) with protease inhibitor cocktail (HALT, Thermo Scientific, 1:100 dilution) and centrifuged (1×10^4 g, 20 min). Protein concentration in supernatants was determined (BCA, ThermoScientific). To separate proteins by gel electrophoresis, 30 μg of protein/well were loaded in 8 or 12% resolving gels with 4% stacking gels and transferred to nitrocellulose membranes (Bio-Rad, Hercules, Calif.). Membranes were blocked for one hour with either 5% bovine serum albumin (BSA) or 5% nonfat milk in tris-buffered saline with 0.5% Tween-20 (TBS-T). Primary antibodies diluted in 1% BSA or 1% nonfat milk against mucin 13 (1:1000, extracellular domain, sc-66973 Santa Cruz Biotechnology, Santa Cruz, Calif.), E-cadherin (1:1000, intracellular domain, 33-4000, Invitrogen), occludin (1:1000, intracellular domain, 33-1500, Invitrogen), pancreatic trypsin (1:1000, sc-137077 Santa Cruz Biotechnology), or β-actin (1:1000, sc-130301, Santa Cruz Biotechnology) were incubated overnight at 4° C. After incubation, membranes were washed with TBS-T (3×, 10 min) before addition of goat anti-rabbit or rabbit anti-mouse secondary antibodies (Santa Cruz Biotechnology) diluted 1:1000 in TBS-T. Following secondary antibody incubation (60 min), the membranes were washed with TBS-T (3×) and developed.

[7] = system: ~20-kDa serine proteases; test: Gelatin gel zymography of plasma, lung and intestine samples renatured with serine protease inhibitors; type: biochemical, rat; conditions: 75 μmol/L ANGD or 100 lmol/L TLCK in renaturing and developing buffers, lung, intestine samples
Procedure: Protease Activity—Gelatin gel zymography was completed as previously described. When present, the luminal contents from the jejunal tissue were discarded by gentle compression of the intestine before homogenization to prevent excess digestion of the gelatin substrate in the gels by luminal proteases. Tissues from shocked animals (flushed and nonflushed) as well as controls were rinsed and blotted dry before weighing. Protein concentration was determined using the BCA kit before mixing each sample in a 1:1 ratio with loading dye (containing sodiumdodecyl sulfate (SDS), but no reducing agent). Two microgram protein/lane of intestine or 20 μg protein/lane of lung homogenates were loaded. Plasma (0.5 μL) was mixed with 2 μL loading dye and loaded into each lane.
Samples were separated by gel electrophoresis in 11% sodiumdodecyl sulfate polyacrylamide gel electrophoresis (SDS-PAGE) gelatin impregnated gels. Upon separation, gel proteins were renatured in 2.5% Triton-X 100 in water (49, 15 min) before incubation at 37° C. overnight in developing buffer (0.05 mol/L Tris base, 0.2 mol/L NaCl, 4 μmol/L ZnCl2, 5 mmol/L CaCl2.2H2O). Gels were then fixed and stained (50% methanol, 10% acetic acid, 40% water, and 0.25% Coomassie blue solution) for 3 h, destained in water to achieve appropriate contrast before digital analysis (ImageJ).
To confirm that the ˜20-kDa bands were serine proteases, gels were renatured and developed in the aforementioned buffers with the addition of either 75 μmol/L serine protease inhibitor ANGD (nafamostat mesilate) or 100 lmol/L trypsin inhibitor tosyl-lysine chloromethyl ketone (TLCK) and compared to duplicate gels that were subject to the standard renaturation procedure.

[8] = system: experimental shock; conditions: cited from earlier work

C[C@H]1c2cccc(O)c2C(=O)C2=C(O)[C@]3(O)C(=O)C(C(N)=O)=C(O)[C@@H](N(C)C)[C@@H]3[C@@H](O)[C@@H]21 [doxycycline]
plasma MMP-1/9 activity reduction [1]: 85%

CNC(=O)[C@H](Cc1c[nH]c2ccccc12)NC(=O)[C@@H](CC(=O)NO)CC(C)C [GM 6001, N-[(2R)-2-(hydroxamidocarbonylmethyl)-4-methylpentanoyl]-L-tryptophan methylamide]
20 kDa serine protease activity bands [2]: serine protease bands remained in all gels | intestinal villi structure [3]: did not prevent the villi destruction | transmural permeability, 90-120 min period ([4]; ex vivo ischemia, inhibitor in lumen without glucose): more effective at reducing the transmural permeability compared to either doxycycline or tranexamic acid | fluorescein transport rates, 30-60 min and 60-90 min periods ([4]; ex vivo ischemia, inhibitor in lumen without glucose, vs saline): significantly decreased compared to the saline treated intestines | MMP gelatinase activity bands (220 kDa MMP-9 dimers, pro-MMP-2, MMP-2, 50 kDa band) [5]: reduced or eliminated | E-cadherin levels (immunoblot) [6]: neither doxycycline nor GM 6001 were effective | mucin 13 levels (immunoblot) [6]: neither doxycycline nor GM 6001 were effective | occludin levels (immunoblot) [6]: neither doxycycline nor GM 6001 were effective

CS(=O)(=O)O.CS(=O)(=O)O.N=C(N)Nc1ccc(C(=O)Oc2ccc3cc(C(=N)N)ccc3c2)cc1 [ANGD, 6-amidino-2-naphthyl p-guanidinobenzoate dimethanesulfonate]
serine protease (~20 kDa) band intensities ([7]; dimethanesulfonate): substantial decrease | serine protease (~20 kDa) band intensities ([7]; listed as nafamostat mesilate, dimethanesulfonate): disappeared | microhemorrhages in the intestine ([8]; enteral treatment in the small intestine): reduced microhemorrhages in the intestine | MPO infiltration into the lungs ([8]; enteral, similar model of HS (Altshuler et al. 2012)): attenuate MPO infiltration into the lungs

OC[C@@H](O)[C@@H](O)[C@H](O)[C@H](O)CO [Mannitol, mannitol]
intestinal villi structure [3]: nor preserved villi structure | fluorescein transport across the wall of the intestine ([4]; ex vivo, treatment in lumen, two-hour ischemic period): neither prevented fluorescein penetration

tosyl-lysine chloromethyl ketone [TLCK]
serine protease (~20 kDa) band intensities [7]: substantial decrease | serine protease (~20 kDa) band intensities ([7]; listed as tosyllysine chloromethyl ketone hydrochloride): disappeared
